Activity calls are given as the source filed them. No cut-off for these calls is given here.
Key:
[1] = target: Epithelial discoidin domain-containing receptor 1 (Homo sapiens, UniProt Q08345); test: Inhibition of DDR1 at compound concentration of 10.0 uM using the ScanMax (DiscoverX)
[2] = target: T1, Discoidin domain-containing receptor 2 (Homo sapiens, UniProt Q16832); test: Inhibition of DDR2 at compound concentration of 10.0 uM using the ScanMax (DiscoverX)
T1 sequence (Q16832 whole entry): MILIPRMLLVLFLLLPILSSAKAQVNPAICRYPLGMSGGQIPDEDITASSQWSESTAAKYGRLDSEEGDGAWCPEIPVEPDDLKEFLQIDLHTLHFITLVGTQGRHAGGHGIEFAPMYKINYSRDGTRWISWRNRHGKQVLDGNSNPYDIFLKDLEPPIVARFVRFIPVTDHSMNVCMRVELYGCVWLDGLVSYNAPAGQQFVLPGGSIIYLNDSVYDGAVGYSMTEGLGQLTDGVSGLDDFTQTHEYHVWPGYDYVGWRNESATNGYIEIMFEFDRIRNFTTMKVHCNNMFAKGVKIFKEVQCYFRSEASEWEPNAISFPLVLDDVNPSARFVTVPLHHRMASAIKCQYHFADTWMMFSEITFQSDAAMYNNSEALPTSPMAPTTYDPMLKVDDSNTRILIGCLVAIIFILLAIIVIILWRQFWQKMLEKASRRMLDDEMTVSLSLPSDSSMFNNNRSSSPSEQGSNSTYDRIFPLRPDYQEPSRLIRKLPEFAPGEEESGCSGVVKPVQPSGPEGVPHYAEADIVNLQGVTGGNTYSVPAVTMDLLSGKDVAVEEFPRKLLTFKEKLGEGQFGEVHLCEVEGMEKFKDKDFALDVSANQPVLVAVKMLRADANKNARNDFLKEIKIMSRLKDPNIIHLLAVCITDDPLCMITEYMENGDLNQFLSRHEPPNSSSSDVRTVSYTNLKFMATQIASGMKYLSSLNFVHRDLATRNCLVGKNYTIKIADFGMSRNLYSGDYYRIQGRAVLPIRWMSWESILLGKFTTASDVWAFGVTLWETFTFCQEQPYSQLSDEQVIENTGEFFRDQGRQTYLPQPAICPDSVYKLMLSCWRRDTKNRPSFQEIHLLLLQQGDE

[3] = target: 5-hydroxytryptamine receptor 2B (Homo sapiens, UniProt P41595); test: GPCRScan assay: inhibition of 5-HT2B; parameters: radioligand conc. used [nm] 1.0 – 2.0, parental cells stable HEK
[4] = target: 5-hydroxytryptamine receptor 2C (Homo sapiens, UniProt P28335); test: GPCRScan assay: inhibition of 5-HT2C; parameters: radioligand conc. used [nm] 1.0 – 2.5, parental cells HEK T
[5] = target: D(2) dopamine receptor (Homo sapiens, UniProt P14416); test: GPCRScan assay: inhibition of D2; parameters: radioligand conc. used [nm] 0.4 – 1.0, parental cells stable fibroblast
[6] = target: Sodium-dependent noradrenaline transporter (Homo sapiens, UniProt P23975); test: GPCRScan assay: inhibition of NET; parameters: radioligand conc. used [nm] 1.3 – 5.0, parental cells stable HEK
[7] = target: Mu-type opioid receptor (Homo sapiens, UniProt P35372); test: GPCRScan assay: inhibition of MOR; parameters: radioligand conc. used [nm] 1.0 – 2.0, parental cells stable HEK
[8] = target: Delta-type opioid receptor (Homo sapiens, UniProt P41143); test: GPCRScan assay: inhibition of DOR; parameters: radioligand conc. used [nm] 1.0 – 2.0, parental cells stable HEK
[9] = target: T2, Tyrosine-protein kinase receptor Tie-1 (Homo sapiens, UniProt P35590); test: NanoBRET assay (SGC Frankfurt) with TIE1
[10] = target: T3, Angiopoietin-1 receptor (Homo sapiens, UniProt Q02763); test: KINOMEScan (DiscoveRx Corp) with TEK
[11] = target: Serine/threonine-protein kinase 10 (Homo sapiens, UniProt O94804); test: NanoBRET assay (SGC Frankfurt) with STK10
[12] = test system: Epidermal growth factor receptor (Homo sapiens), P00533 [L858R,T790M]
[13] = target: T2, Tyrosine-protein kinase receptor Tie-1; details: Compound concentration 1000.0 nM
[14] = target: 5-hydroxytryptamine receptor 6 (Homo sapiens) (UniProt P50406); details: Compound concentration 10.0 uM
[15] = target: D(1B) dopamine receptor (Homo sapiens) (UniProt P21918); details: Compound concentration 10.0 uM
[16] = target: GABA-A receptor; anion channel (Rattus norvegicus) (UniProt O09028+P15431+P18506+P18508+P19969+P20236+P23574+P23576+P28471+P28473+P30191+P62813+P63079+P63138+Q91ZM7+Q9ES14); details: Compound concentration 10.0 uM
[17] = target: Beta-3 adrenergic receptor (Homo sapiens, UniProt P13945); test: GPCRScan assay: inhibition of Beta3; parameters: radioligand conc. used [nm] 0.2 – 0.5, parental cells HEK Flp-In
[18] = target: T3, Angiopoietin-1 receptor; test: Bayer in-house kinase assay with TEK
[19] = target: Vascular endothelial growth factor receptor 2 (Homo sapiens, UniProt P35968); test: KINOMEScan (DiscoveRx Corp) with KDR
[20] = target: Fibroblast growth factor receptor 1 (Homo sapiens, UniProt P11362); test: Bayer in-house kinase assay with FGFR1
[21] = target: Platelet-derived growth factor receptor beta (Homo sapiens, UniProt P09619); test: Bayer in-house kinase assay with PDGFRB
[22] = target: Vascular endothelial growth factor receptor 3 (Homo sapiens, UniProt P35916); test: Bayer in-house kinase assay with FLT4
[23] = target: Fibroblast growth factor receptor 3 (Homo sapiens, UniProt P22607); test: Bayer in-house kinase assay with […]
[24] = target: D(3) dopamine receptor (Homo sapiens) (UniProt P35462); details: Compound concentration 10.0 uM
[25] = target: Histamine H1 receptor (Homo sapiens) (UniProt P35367); details: Compound concentration 10.0 uM
[26] = target: Histamine H3 receptor (Homo sapiens) (UniProt Q9Y5N1); details: Compound concentration 10.0 uM
[27] = target: Histamine H4 receptor (Homo sapiens) (UniProt Q9H3N8); details: Compound concentration 10.0 uM

T2 sequence (P35590 whole entry): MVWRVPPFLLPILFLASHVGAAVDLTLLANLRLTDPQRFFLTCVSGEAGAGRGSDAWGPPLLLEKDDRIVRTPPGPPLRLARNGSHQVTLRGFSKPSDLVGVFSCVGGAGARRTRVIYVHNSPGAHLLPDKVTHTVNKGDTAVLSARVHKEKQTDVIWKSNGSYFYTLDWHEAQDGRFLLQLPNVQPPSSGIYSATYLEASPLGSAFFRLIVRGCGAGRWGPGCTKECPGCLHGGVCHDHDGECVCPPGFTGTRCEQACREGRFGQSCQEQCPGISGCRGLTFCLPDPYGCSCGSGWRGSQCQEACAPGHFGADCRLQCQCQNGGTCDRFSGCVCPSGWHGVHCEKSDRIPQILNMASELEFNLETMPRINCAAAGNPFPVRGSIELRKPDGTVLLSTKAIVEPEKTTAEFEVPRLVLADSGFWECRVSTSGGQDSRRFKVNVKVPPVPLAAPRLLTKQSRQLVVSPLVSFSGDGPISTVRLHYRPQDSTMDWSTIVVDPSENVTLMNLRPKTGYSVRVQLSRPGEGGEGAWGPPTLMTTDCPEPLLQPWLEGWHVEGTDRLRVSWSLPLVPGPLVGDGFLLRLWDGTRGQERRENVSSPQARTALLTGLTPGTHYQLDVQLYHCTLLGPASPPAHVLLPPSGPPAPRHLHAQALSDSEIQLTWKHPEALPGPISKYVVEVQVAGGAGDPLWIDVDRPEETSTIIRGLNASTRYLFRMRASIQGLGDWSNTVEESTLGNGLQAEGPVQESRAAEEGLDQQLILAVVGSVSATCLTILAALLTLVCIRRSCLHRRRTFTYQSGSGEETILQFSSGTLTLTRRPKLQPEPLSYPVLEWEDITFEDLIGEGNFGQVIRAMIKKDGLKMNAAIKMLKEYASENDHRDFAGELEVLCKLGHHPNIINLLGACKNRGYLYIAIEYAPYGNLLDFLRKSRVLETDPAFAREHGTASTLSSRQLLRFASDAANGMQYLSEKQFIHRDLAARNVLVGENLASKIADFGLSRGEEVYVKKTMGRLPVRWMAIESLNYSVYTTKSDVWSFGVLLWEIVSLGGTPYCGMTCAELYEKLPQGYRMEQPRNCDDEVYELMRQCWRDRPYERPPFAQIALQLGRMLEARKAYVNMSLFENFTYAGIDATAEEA
Chain of Beta-3 adrenergic receptor (P13945 whole entry): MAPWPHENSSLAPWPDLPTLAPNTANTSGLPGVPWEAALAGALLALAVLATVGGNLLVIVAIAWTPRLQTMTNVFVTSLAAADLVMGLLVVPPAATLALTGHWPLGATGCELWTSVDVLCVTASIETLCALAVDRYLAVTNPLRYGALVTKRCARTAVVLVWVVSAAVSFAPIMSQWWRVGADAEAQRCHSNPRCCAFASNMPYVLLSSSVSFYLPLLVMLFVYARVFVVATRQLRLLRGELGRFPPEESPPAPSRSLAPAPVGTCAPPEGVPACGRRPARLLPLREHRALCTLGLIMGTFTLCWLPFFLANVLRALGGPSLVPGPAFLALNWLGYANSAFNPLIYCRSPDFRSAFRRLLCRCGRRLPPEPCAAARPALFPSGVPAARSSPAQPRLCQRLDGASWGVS
T3 sequence (Q02763 whole entry): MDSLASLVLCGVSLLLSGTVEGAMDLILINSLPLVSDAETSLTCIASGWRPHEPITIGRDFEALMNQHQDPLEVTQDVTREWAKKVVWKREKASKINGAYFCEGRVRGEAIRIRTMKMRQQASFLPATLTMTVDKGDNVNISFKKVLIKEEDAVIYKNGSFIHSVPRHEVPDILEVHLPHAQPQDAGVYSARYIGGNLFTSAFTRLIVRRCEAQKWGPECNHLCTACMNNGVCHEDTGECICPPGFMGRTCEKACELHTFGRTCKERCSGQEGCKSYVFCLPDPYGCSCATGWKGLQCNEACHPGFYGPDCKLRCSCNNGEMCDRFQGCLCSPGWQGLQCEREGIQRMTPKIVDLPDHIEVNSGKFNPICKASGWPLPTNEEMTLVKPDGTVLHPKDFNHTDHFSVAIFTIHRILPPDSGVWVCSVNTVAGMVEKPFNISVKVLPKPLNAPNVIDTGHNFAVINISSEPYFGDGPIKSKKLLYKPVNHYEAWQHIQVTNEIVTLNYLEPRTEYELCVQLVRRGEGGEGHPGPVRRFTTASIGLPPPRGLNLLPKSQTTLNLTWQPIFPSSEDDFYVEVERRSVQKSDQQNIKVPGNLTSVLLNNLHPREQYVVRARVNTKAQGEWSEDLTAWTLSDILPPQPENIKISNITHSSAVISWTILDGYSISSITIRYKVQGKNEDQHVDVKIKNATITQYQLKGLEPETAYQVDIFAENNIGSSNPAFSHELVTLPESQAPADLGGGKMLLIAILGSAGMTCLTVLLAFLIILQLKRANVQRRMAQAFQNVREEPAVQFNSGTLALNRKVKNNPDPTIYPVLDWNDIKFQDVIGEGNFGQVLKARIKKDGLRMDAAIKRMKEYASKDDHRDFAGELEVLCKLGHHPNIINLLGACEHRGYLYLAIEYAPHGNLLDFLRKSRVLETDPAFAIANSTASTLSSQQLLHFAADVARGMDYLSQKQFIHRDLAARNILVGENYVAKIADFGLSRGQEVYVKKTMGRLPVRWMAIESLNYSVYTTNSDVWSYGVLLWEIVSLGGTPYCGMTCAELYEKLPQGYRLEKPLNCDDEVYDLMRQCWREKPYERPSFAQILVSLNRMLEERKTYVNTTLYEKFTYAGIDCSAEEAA
Chain of Serine/threonine-protein kinase 10 (O94804 whole entry): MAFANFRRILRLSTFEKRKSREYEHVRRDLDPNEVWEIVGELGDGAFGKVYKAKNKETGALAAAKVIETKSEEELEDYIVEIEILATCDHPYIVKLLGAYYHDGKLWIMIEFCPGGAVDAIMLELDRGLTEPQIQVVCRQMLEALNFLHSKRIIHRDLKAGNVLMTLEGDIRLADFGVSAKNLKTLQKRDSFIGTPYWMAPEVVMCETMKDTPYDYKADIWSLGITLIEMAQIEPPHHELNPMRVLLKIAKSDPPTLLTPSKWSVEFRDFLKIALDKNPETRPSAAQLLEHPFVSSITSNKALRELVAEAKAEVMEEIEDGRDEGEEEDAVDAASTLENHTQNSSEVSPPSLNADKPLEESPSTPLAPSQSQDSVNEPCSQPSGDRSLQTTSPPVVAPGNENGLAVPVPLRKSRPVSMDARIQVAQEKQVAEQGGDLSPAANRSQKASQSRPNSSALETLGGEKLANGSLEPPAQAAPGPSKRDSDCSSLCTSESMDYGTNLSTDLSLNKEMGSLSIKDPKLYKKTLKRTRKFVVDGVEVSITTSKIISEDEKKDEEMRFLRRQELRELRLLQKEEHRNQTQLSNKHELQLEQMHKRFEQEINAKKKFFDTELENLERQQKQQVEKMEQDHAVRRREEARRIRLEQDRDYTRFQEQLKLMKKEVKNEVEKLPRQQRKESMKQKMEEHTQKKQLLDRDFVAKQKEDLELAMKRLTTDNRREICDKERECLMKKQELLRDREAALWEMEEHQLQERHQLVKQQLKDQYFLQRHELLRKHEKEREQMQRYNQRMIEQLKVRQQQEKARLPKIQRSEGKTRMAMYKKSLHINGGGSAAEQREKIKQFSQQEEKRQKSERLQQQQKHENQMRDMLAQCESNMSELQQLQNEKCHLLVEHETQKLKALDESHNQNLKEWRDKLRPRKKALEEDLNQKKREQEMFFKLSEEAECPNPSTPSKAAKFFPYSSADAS
Chain of Fibroblast growth factor receptor 3 (P22607 whole entry): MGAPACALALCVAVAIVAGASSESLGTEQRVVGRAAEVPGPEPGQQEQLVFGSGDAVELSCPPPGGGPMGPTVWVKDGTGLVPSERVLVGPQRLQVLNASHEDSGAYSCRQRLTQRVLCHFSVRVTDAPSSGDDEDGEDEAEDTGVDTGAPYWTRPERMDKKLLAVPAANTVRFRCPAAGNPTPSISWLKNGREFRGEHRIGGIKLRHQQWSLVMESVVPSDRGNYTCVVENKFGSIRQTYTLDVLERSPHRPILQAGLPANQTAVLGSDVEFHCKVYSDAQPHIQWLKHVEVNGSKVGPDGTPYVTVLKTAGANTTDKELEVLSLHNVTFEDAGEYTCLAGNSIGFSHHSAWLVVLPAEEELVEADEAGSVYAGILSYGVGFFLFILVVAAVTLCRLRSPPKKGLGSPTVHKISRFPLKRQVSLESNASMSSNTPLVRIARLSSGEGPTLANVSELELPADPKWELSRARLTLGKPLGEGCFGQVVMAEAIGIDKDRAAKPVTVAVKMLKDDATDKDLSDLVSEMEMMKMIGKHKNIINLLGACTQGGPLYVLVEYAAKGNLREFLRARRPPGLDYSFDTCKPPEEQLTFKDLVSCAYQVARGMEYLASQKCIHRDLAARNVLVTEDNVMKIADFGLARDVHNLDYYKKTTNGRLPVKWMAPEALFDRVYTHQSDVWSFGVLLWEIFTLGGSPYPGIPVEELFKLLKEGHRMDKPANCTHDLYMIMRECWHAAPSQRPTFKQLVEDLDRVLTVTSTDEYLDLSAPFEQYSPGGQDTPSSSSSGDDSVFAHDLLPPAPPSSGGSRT
Chain of D(3) dopamine receptor (Homo sapiens) (P35462 whole entry): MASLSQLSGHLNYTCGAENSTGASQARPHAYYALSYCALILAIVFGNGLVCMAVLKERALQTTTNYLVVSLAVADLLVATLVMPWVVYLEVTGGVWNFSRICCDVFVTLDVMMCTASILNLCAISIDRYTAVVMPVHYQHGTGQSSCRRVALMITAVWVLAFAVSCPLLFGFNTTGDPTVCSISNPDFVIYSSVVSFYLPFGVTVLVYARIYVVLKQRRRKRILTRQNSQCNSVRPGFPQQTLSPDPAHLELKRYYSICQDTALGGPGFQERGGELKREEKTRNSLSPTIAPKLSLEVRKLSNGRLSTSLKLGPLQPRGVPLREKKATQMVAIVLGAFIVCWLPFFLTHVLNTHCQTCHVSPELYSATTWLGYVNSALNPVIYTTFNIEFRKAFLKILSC

Q: Which Kd [1] does the source give for `Cc1cc(NC(=O)c2cccc(S(F)(F)(F)(F)F)c2)cc(-n2ccn3nc(-c4cccnc4)cc23)c1` [BAY-309] here?
A: 0.0021 µM (active)

Q: And the Kd [2]?
A: 0.063 µM (not active)

Q: What about the Ki [3] of the same compound?
A: 2.15 µM

Q: What about the Ki [4] of the same compound?
A: 4.86 µM

Q: What about the Ki [5] of the same compound?
A: 10 µM

Q: And the Ki [6]?
A: 10 µM

Q: And the Ki [7]?
A: 6.99 µM

Q: What about the Ki [8] of the same compound?
A: 1.73 µM

Q: And the EC50 [9]?
A: 2.6 µM (not active)

Q: And the IC50 [9]?
A: 0.13 µM (not active)

Q: What about the Kd [10] of the same compound?
A: > 20 µM (not active)

Q: And the EC50 [11]?
A: 3.2 µM (not active)

Q: And the IC50 [11]?
A: > 10 µM (not active)

Q: And the residual activity ([12]; Compound concentration 1000.0 nM)?
A: 97.6%

Q: And the residual activity [13]?
A: 34.2%

Q: What about the inhibition [14] of the same compound?
A: 5.64%

Q: What about the inhibition [15] of the same compound?
A: 34.9%

Q: What about the inhibition [16] of the same compound?
A: 33.3%

Q: Which Ki ([17]; read-out: Ki) does the source give for `Cc1cc(C)c(-n2ccn3nc(-c4cccnc4)cc23)cc1NC(=O)c1cc(C#N)cc(S(F)(F)(F)(F)F)c1` [BAY-826] here?
A: 7.1 µM

Q: What about the Ki ([17]; read-out: pKi (converted)) of the same compound?
A: 6.68 µM

Q: And the IC50 [18]?
A: 0.00045 µM (active)

Q: And the Kd [19]?
A: 1.6 µM (not active)

Q: And the IC50 [20]?
A: > 10 µM (not active)

Q: And the IC50 [21]?
A: > 20 µM (not active)

Q: And the IC50 [22]?
A: 0.44 µM (not active)

Q: What about the IC50 [23] of the same compound?
A: > 10 µM (not active)

Q: And the residual activity ([12]; Compound concentration 100.0 nM)?
A: 100%

Q: And the inhibition [24]?
A: -5.85%

Q: What about the inhibition [25] of the same compound?
A: 25.3%

Q: What about the inhibition [26] of the same compound?
A: -5.88%

Q: And the inhibition [27]?
A: 11.9%

Reference: ChEMBL document CHEMBL4507270 (2021)
